From ChEMBL document CHEMBL1201862, “PubChem BioAssay data set” (2004)
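Exposure lasted 48 hours, with cells grown in 96-well plates and compounds tested at five concentrations. Here, GI50 denotes the concentration required for 50% inhibition of growth.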 Activity calls are given as the source filed them. Rule as the data show it: active = GI50 up to about 1.1 µM and inactive = higher.

Experiments:
Test in all cases: growth of human tumour cells (NCI), 48 h
[1] = test system: A498
[2] = test system: COLO 205
[3] = test system: KM12
[4] = test system: LXFL 529
[5] = test system: Malme-3M
[6] = test system: NCI-H226
[7] = test system: OVCAR-4
[8] = test system: SF-268
[9] = test system: SK-MEL-2
[10] = test system: SR
[11] = test system: SW-620
[12] = test system: TK-10
[13] = test system: HCT-15
[14] = test system: M14
[15] = test system: OVCAR-3
[16] = test system: SNB-75

| Compound | GI50 [1] | GI50 [2] | GI50 [3] | GI50 [4] | GI50 [5] | GI50 [6] | GI50 [7] | GI50 [8] | GI50 [9] | GI50 [10] | GI50 [11] | GI50 [12] | GI50 [13] [µM] | GI50 [14] | GI50 [15] | GI50 [16] |
| --- | --- | --- | --- | --- | --- | --- | --- | --- | --- | --- | --- | --- | --- | --- | --- | --- |
| O=[N+]([O-])c1ccc(C2SCc3nc4ccccc4n32)cc1 (centres undefined) | 88.3 µM (inactive) | > 100 µM (inactive) | 73.3 µM (inactive) | 43.4 µM (inactive) | 40.1 µM (inactive) | 29.2 µM (inactive) | 76.9 µM (inactive) | > 100 µM (inactive) | 60.1 µM (inactive) | 53.6 µM (inactive) | > 100 µM (inactive) | 43.4 µM (inactive) |  |  |  |  |
| CC(=O)N/C(=C\c1ccccc1/C=C(\NC(C)=O)c1nc2cc(C)c(C)cc2[nH]1)c1nc2cc(C)c(C)cc2[nH]1 | 42.4 µM (inactive) | 19.5 µM (inactive) | 11.8 µM (inactive) | 17.1 µM (inactive) | 21.7 µM (inactive) | 25.8 µM (inactive) |  | 24.1 µM (inactive) | 22.1 µM (inactive) | 0.689 µM (active) | 31.1 µM (inactive) | 24.4 µM (inactive) | > 10 | 9.84 µM (inactive) | 3.73 µM (inactive) | 13.7 µM (inactive) |
| C=CCC12CC(=O)CCC1CC(=O)C2 (centres undefined) | > 100 µM (inactive) | > 100 µM (inactive) | > 100 µM (inactive) | > 100 µM (inactive) | > 100 µM (inactive) | > 100 µM (inactive) | > 100 µM (inactive) | > 100 µM (inactive) | > 100 µM (inactive) | > 100 µM (inactive) | > 100 µM (inactive) | > 100 µM (inactive) | > 100 | > 100 µM (inactive) | > 100 µM (inactive) | > 100 µM (inactive) |
| CCOC(=O)C1=C(C)N(NC(=O)OC)C2(N)N(NC(=O)OC)C(C)=C(C(=O)OCC)C12C#N (centres undefined) | > 100 µM (inactive) |  | > 100 µM (inactive) | > 100 µM (inactive) | > 100 µM (inactive) | > 100 µM (inactive) | > 100 µM (inactive) | > 100 µM (inactive) | > 100 µM (inactive) | > 100 µM (inactive) | > 100 µM (inactive) |  | > 100 | > 100 µM (inactive) | > 100 µM (inactive) | > 100 µM (inactive) |
| COc1ccc(C(=O)C(C(=O)CCC(=O)Nc2cccc(C(F)(F)F)c2)c2ccccc2)cc1 (centres undefined) | > 100 µM (inactive) | > 100 µM (inactive) | > 100 µM (inactive) | 62.2 µM (inactive) | > 100 µM (inactive) | > 100 µM (inactive) | 37.7 µM (inactive) | > 100 µM (inactive) | 96.8 µM (inactive) | 62.7 µM (inactive) | > 100 µM (inactive) | > 100 µM (inactive) | 78.5 | > 100 µM (inactive) | 80 µM (inactive) | > 100 µM (inactive) |
| C[C@H](NC(=O)OC1C2C=CC(O)C1CC2)c1ccccc1 (some centres undefined) | > 100 µM (inactive) | 40.9 µM (inactive) | > 100 µM (inactive) | > 100 µM (inactive) | > 100 µM (inactive) | > 100 µM (inactive) | > 100 µM (inactive) | > 100 µM (inactive) | > 100 µM (inactive) | 21.4 µM (inactive) |  | > 100 µM (inactive) | 13.1 | 31.1 µM (inactive) | > 100 µM (inactive) | > 100 µM (inactive) |
| O=C(c1ccccc1)c1ccc2cccc(OC3OC(CO)C(O)C(O)C3O)c2n1 (centres undefined) | 26.8 µM (inactive) | > 100 µM (inactive) | > 100 µM (inactive) | > 100 µM (inactive) | > 100 µM (inactive) | > 100 µM (inactive) | > 100 µM (inactive) | > 100 µM (inactive) | > 100 µM (inactive) | > 100 µM (inactive) | > 100 µM (inactive) | > 100 µM (inactive) | > 100 | > 100 µM (inactive) | 45.2 µM (inactive) | 68.4 µM (inactive) |
| COc1ccc(C2S/C(=C\c3ccc(O)cc3)C(=O)N2NC(=O)Cc2ccccc2)cc1 (centres undefined) | > 100 µM (inactive) | > 100 µM (inactive) | > 100 µM (inactive) | > 100 µM (inactive) | > 100 µM (inactive) | > 100 µM (inactive) | > 100 µM (inactive) | > 100 µM (inactive) | > 100 µM (inactive) | > 100 µM (inactive) | > 100 µM (inactive) | > 100 µM (inactive) | > 100 | > 100 µM (inactive) |  | 90.8 µM (inactive) |
| CCNC1=Nc2ccccc2-n2c(nn3nc4ccccc4c23)N1CC | > 100 µM (inactive) | > 100 µM (inactive) | 29.6 µM (inactive) | > 100 µM (inactive) |  | > 100 µM (inactive) | > 100 µM (inactive) | > 100 µM (inactive) |  | 34.8 µM (inactive) | > 100 µM (inactive) |  | > 100 | > 100 µM (inactive) |  | > 100 µM (inactive) |
| O=C(/C=C/C1C(=O)NC(=O)NC1=O)CC(=O)C(=O)Nc1cc(Cl)c(Cl)cc1Cl | > 100 µM (inactive) | > 100 µM (inactive) | > 100 µM (inactive) | > 100 µM (inactive) | > 100 µM (inactive) | > 100 µM (inactive) | > 100 µM (inactive) | > 100 µM (inactive) | > 100 µM (inactive) | > 100 µM (inactive) | > 100 µM (inactive) | > 100 µM (inactive) | > 100 | > 100 µM (inactive) | > 100 µM (inactive) | > 100 µM (inactive) |
| CC1OC(OCC2OC(Oc3c(-c4ccc(O)cc4)oc4cc(O)cc(O)c4c3=O)C(OC3OC(C)C(O)C(O)C3O)C(O)C2O)C(O)C(O)C1O (centres undefined) | > 100 µM (inactive) | > 46 µM (inactive) | > 100 µM (inactive) | > 100 µM (inactive) | > 100 µM (inactive) | > 100 µM (inactive) | > 54.8 µM (inactive) | > 100 µM (inactive) | > 100 µM (inactive) | > 100 µM (inactive) | > 36.2 µM (inactive) | > 100 µM (inactive) | > 42.3 | > 100 µM (inactive) | > 100 µM (inactive) | > 100 µM (inactive) |
| OCC1O[C@H](O[C@@H]2CCCN3CC(O)C(O)[C@@H]23)C(O)C(O)C1O (some centres undefined) | > 100 µM (inactive) | > 100 µM (inactive) | > 100 µM (inactive) | > 100 µM (inactive) | > 100 µM (inactive) | > 100 µM (inactive) | > 100 µM (inactive) | > 100 µM (inactive) | > 100 µM (inactive) | > 100 µM (inactive) | > 100 µM (inactive) | > 100 µM (inactive) | > 100 | > 100 µM (inactive) | > 100 µM (inactive) | > 100 µM (inactive) |
